Measurements as given in patent US20220081387A1, “METHODS FOR PREPARING AMMONIUM TETRATHIOMOLYBDATE” (Alexion Pharmaceuticals, Inc., priority 2019, published 2022).

Experiments:
[1] = Long-term stability study of ATTM samples, determined by HPLC; assay type: physicochemical
Method: ATTM Samples 1 and 2 were prepared essentially according to procedure in Example 1 starting with 12 kg of ammonium heptamolybdate. The isolated product was packed and stored immediately. Specifically, the samples were packaged corresponding to the packaging of the bulk material under argon in transparent anti-static polyethylene plastic bags, 90 10 10, 110 mm×170 mm, and the bags containing the samples were sealed with a plastic tie, and then subsequently packed in welded aluminium bags along with a drying agent in-between the two bags. Additional samples were packaged with ambient atmosphere in transparent anti-static polyethylene plastic bags, 90 10 10, 110 mm×170 mm. The bags containing the samples were sealed with a plastic tie, and then subsequently packed in welded aluminium bags along with a drying agent in-between the two bags.

[2] = ATTM solubility in sample solution (HPLC), methanol, ethanol and purified water; assay type: physicochemical; settings: ethanol, purified water
Method: The ATTM solubility was measured in sample solution (HPLC), methanol, ethanol and purified water.

Q: Which results are given for `[NH4+].[NH4+].[SH-].[SH-].[S]=[Mo]=[S]` [Sample 1, ammonium tetrathiomolybdate]?
A: (NH4)6Mo7O24 ([1]; 5 °C, Air, 3 mo): <0.05 w/w %; ATTM ([1]; 5 °C, Air, 3 mo): 99.2 w/w %; Dimer S6 ([1]; 5 °C, Air, 3 mo): <0.05 w/w %; TM1 ([1]; 5 °C, Air, 3 mo): <0.05 w/w %; TM2 ([1]; 5 °C, Air, 3 mo): <0.05 w/w %; TM3 ([1]; 5 °C, Air, 3 mo): 0.93 w/w %; (NH4)6Mo7O24 ([1]; 5 °C, Air, 6 mo): <0.05 w/w %; ATTM ([1]; 5 °C, Air, 6 mo): 98.6 w/w %; Dimer S6 ([1]; 5 °C, Air, 6 mo): <0.05 w/w %; Insoluble materials ([1]; 5 °C, Air, 6 mo): <0.1 w/w %; TM1 ([1]; 5 °C, Air, 6 mo): <0.05 w/w %; TM2 ([1]; 5 °C, Air, 6 mo): <0.05 w/w %; TM3 ([1]; 5 °C, Air, 6 mo): 0.94 w/w %; (NH4)6Mo7O24 ([1]; 5 °C, Air, Initial): <0.05 w/w %; ATTM ([1]; 5 °C, Air, Initial): 98.8 w/w %; Dimer S6 ([1]; 5 °C, Air, Initial): <0.05 w/w %; Insoluble materials ([1]; 5 °C, Air, Initial): <0.1 w/w %; TM1 ([1]; 5 °C, Air, Initial): <0.05 w/w %; TM2 ([1]; 5 °C, Air, Initial): <0.05 w/w %; TM3 ([1]; 5 °C, Air, Initial): 0.77 w/w %; (NH4)6Mo7O24 ([1]; 5 °C, Ar, 3 mo): <0.05 w/w %; ATTM ([1]; 5 °C, Ar, 3 mo): 99.1 w/w %; Dimer S6 ([1]; 5 °C, Ar, 3 mo): <0.05 w/w %; TM1 ([1]; 5 °C, Ar, 3 mo): <0.05 w/w %; TM2 ([1]; 5 °C, Ar, 3 mo): <0.05 w/w %; TM3 ([1]; 5 °C, Ar, 3 mo): 0.96 w/w %; (NH4)6Mo7O24 ([1]; 5 °C, Ar, 6 mo): <0.05 w/w %; ATTM ([1]; 5 °C, Ar, 6 mo): 99.0 w/w %; Dimer S6 ([1]; 5 °C, Ar, 6 mo): <0.05 w/w %; Insoluble materials ([1]; 5 °C, Ar, 6 mo): <0.1 w/w %; TM1 ([1]; 5 °C, Ar, 6 mo): <0.05 w/w %; TM2 ([1]; 5 °C, Ar, 6 mo): <0.05 w/w %; TM3 ([1]; 5 °C, Ar, 6 mo): 0.97 w/w %; (NH4)6Mo7O24 ([1]; 5 °C, Ar, Initial): <0.05 w/w %; ATTM ([1]; 5 °C, Ar, Initial): 98.8 w/w %; Dimer S6 ([1]; 5 °C, Ar, Initial): <0.05 w/w %; Insoluble materials ([1]; 5 °C, Ar, Initial): <0.1 w/w %; TM1 ([1]; 5 °C, Ar, Initial): <0.05 w/w %; TM2 ([1]; 5 °C, Ar, Initial): <0.05 w/w %; TM3 ([1]; 5 °C, Ar, Initial): 0.77 w/w %; (NH4)6Mo7O24 ([1]; −20 °C, Air, 3 mo): <0.05 w/w %; ATTM ([1]; −20 °C, Air, 3 mo): 99.3 w/w %; Dimer S6 ([1]; −20 °C, Air, 3 mo): <0.05 w/w %; TM1 ([1]; −20 °C, Air, 3 mo): <0.05 w/w %; TM2 ([1]; −20 °C, Air, 3 mo): <0.05 w/w %; TM3 ([1]; −20 °C, Air, 3 mo): 0.93 w/w %; (NH4)6Mo7O24 ([1]; −20 °C, Air, 6 mo): <0.05 w/w %; ATTM ([1]; −20 °C, Air, 6 mo): 99.0 w/w %; Dimer S6 ([1]; −20 °C, Air, 6 mo): <0.05 w/w %; Insoluble materials ([1]; −20 °C, Air, 6 mo): <0.1 w/w %; TM1 ([1]; −20 °C, Air, 6 mo): <0.05 w/w %; TM2 ([1]; −20 °C, Air, 6 mo): <0.05 w/w %; TM3 ([1]; −20 °C, Air, 6 mo): 0.82 w/w %; (NH4)6Mo7O24 ([1]; −20 °C, Air, Initial): <0.05 w/w %; ATTM ([1]; −20 °C, Air, Initial): 98.8 w/w %; Dimer S6 ([1]; −20 °C, Air, Initial): <0.05 w/w %; Insoluble materials ([1]; −20 °C, Air, Initial): <0.1 w/w %; TM1 ([1]; −20 °C, Air, Initial): <0.05 w/w %; TM2 ([1]; −20 °C, Air, Initial): <0.05 w/w %; TM3 ([1]; −20 °C, Air, Initial): 0.77 w/w %; (NH4)6Mo7O24 ([1]; −20 °C, Ar, 3 mo): <0.05 w/w %; ATTM ([1]; −20 °C, Ar, 3 mo): 99.5 w/w %; Dimer S6 ([1]; −20 °C, Ar, 3 mo): <0.05 w/w %; TM1 ([1]; −20 °C, Ar, 3 mo): <0.05 w/w %; TM2 ([1]; −20 °C, Ar, 3 mo): <0.05 w/w %; TM3 ([1]; −20 °C, Ar, 3 mo): 1.05 w/w %; (NH4)6Mo7O24 ([1]; −20 °C, Ar, 6 mo): <0.05 w/w %; ATTM ([1]; −20 °C, Ar, 6 mo): 99.1 w/w %; Dimer S6 ([1]; −20 °C, Ar, 6 mo): <0.05 w/w %; Insoluble materials ([1]; −20 °C, Ar, 6 mo): <0.1 w/w %; TM1 ([1]; −20 °C, Ar, 6 mo): <0.05 w/w %; TM2 ([1]; −20 °C, Ar, 6 mo): <0.05 w/w %; TM3 ([1]; −20 °C, Ar, 6 mo): 0.88 w/w %; (NH4)6Mo7O24 ([1]; −20 °C, Ar, Initial): <0.05 w/w %; ATTM ([1]; −20 °C, Ar, Initial): 98.8 w/w %; Dimer S6 ([1]; −20 °C, Ar, Initial): <0.05 w/w %; Insoluble materials ([1]; −20 °C, Ar, Initial): <0.1 w/w %; TM1 ([1]; −20 °C, Ar, Initial): <0.05 w/w %; TM2 ([1]; −20 °C, Ar, Initial): <0.05 w/w %; TM3 ([1]; −20 °C, Ar, Initial): 0.77 w/w %

Q: Which ATTM solubility [2] does the source give for `[NH4+].[NH4+].[SH-].[SH-].[S]=[Mo]=[S]` [ATTM, Ammonium tetrathiomolybdate] here?
A: Its ATTM solubility is “lowest in alcohols, particularly in ethanol, and higher in water”.

Q: What about the “degradation of ATTM on storage” value ([1]; after 6 months, by HPLC) of the same compound?
A: The value was “no significant degradation”.
